Test results reported in article PMC7956155, “Design and Evaluation of Peptide Dual-Agonists of GLP-1 and NPY2 Receptors for Glucoregulation and Weight Loss with Mitigated Nausea and Emesis” (Journal of Medicinal Chemistry, 2021).
Square brackets hold non-standard residues; d marks the D form. Ends that are not written are not given here.

How the values were obtained:
human GLP-1R [1] = biological target: T1, human GLP-1R (Homo sapiens, UniProt P43220); test: Taglite fluorescent competitive binding assay at GLP-1R against GLP-1red; conditions: CHO-K1 cells, tracer GLP-1red 4 nM, duplicate independent runs
rat GLP-1R = biological target: T2, rat GLP-1R (Rattus norvegicus, UniProt P32301); format: cell-based
T2 sequence (P32301 22-463): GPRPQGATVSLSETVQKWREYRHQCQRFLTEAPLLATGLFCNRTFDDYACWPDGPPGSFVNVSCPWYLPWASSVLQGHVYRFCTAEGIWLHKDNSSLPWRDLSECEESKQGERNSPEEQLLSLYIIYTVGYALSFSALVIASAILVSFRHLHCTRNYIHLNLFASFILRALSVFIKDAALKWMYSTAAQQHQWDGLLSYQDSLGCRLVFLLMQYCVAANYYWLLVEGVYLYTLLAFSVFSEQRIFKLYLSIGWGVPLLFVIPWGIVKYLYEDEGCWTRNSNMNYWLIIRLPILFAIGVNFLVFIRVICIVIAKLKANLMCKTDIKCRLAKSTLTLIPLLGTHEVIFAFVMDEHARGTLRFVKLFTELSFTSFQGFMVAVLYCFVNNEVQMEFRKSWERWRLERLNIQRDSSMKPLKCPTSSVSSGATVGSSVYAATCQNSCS

human GLP-1R [2] = biological target: T1, human GLP-1R; test: cAMP FRET reporter (H188) agonism assay at human GLP-1R in HEK293 cells; format: cell-based
Method: HEK293 cells stably expressing the human GLP-1R and virally transduced with H188 for FRET assays were obtained from Novo Nordisk A/S (Bagsvaerd, Denmark).[67] […] Post-transfection, cells were incubated for 48 h in fresh culture media. For real-time kinetic assays of FRET, cells were harvested and resuspended in 21 mL of SES buffer and plated at 196 μL per well. […] FRET assays and data analysis were performed using a FlexStation 3 microplate reader as described.
Cells were then transduced for 16 h with H188 virus at a density of 60 000 cells/well under conditions in which the multiplicity of infection was equivalent to 25 viral particles per cell. The culture media was removed and replaced by 200 μL/well of a standard extracellular saline (SES) solution supplemented with 11 mM glucose and 0.1% BSA. […] Real-time kinetic assays of FRET were performed using a FlexStation 3 microplate reader equipped with excitation and emission light monochromators (Molecular Devices, Sunnyvale, CA). […] The emission intensities were the averages of 15 excitation flashes for each time point per well. […] Prism 8.1 was also used for nonlinear regression analysis to quantify dose–response relationships.

rat GlucR = rat GlucR (Rattus norvegicus, UniProt P30082); test: cAMP FRET reporter (H188) agonism assay at GlucR in HEK293 cells; format: cell-based; conditions: HEK293 cells stably expressing GlucR, H188 FRET biosensor; duplicate independent experiments; read-out: GlucR agonist action (EC50), increase of cytosolic cAMP
Method: Plasmid encoding human Y2-R (I.D. NPYR20TN00) in pcDNA3.1 and human Y1-R (NPYR10TN00) were obtained from the cDNA Resource Center (Bloomsburg, PA). HEK293 cells stably expressing the rat GlucR were obtained from C. […] Adenovirus for transduction of HEK293 cells was generated by a commercial vendor (Vira-Quest, North Liberty, IA) using the shuttle vector pVQAd CMV K-NpA and the H188 plasmid provided by Prof. Kees Jalink.[74]
These assays were conducted as fully described by us previously.[70],[71] Briefly, HEK293 cells transiently or stably expressing recombinant GPCRs were plated at 80% confluency on 96-well clear-bottom assay plates (Costar 3904, Corning, NY). […] Real-time kinetic assays of FRET were performed using a FlexStation 3 microplate reader equipped with excitation and emission light monochromators (Molecular Devices, Sunnyvale, CA). Excitation light was delivered at 435/9 nm (455 nm cutoff), and emitted light was detected at 485 ± 15 nm (cyan fluorescent protein) or 535 ± 15 nm (yellow fluorescent protein).[68],[75] […] The 485/535 emission ratio was calculated for each well, and the mean ± SD values for 12 wells were averaged. […] Prism 8.1 was also used for nonlinear regression analysis to quantify dose–response relationships.

human Y2-R = biological target: T3, human Y2-R (Homo sapiens, UniProt P49146); test: cAMP FRET reporter (H188) assay at Y2-R: counteraction of adenosine-stimulated cAMP in HEK293 cells; format: cell-based; conditions: HEK cells with H188 biosensor, recombinant human Y2-R and endogenous A2b receptors; 2 μM adenosine; 95% CI in brackets, at least triplicate; read-out: Y2-R agonist action (IC50), decrease of adenosine-raised cAMP
T3 sequence (P49146 1-381): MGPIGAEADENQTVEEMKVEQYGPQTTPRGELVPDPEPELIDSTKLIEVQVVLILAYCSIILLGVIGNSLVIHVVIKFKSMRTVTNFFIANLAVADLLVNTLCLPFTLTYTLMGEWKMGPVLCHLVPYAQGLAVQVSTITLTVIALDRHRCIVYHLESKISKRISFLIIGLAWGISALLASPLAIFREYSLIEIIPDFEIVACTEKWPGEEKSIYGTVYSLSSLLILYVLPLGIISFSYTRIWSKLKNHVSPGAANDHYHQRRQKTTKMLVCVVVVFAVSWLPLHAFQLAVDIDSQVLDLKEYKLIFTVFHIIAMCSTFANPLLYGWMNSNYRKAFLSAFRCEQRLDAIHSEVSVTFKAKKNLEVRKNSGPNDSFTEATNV

[3] = Pooled rat liver microsomal stability assay; format: in vitro ADME; conditions: pooled male Sprague–Dawley rat liver microsomes 1 mg/mL, 30 μM peptide, 1 mM NADPH, pH 7.4, 37 °C, over 120 min, HPLC UV 206 nm, n = 3; standard error in brackets
Method: Pooled liver microsomes from a male Sprague–Dawley rat were purchased from Sigma-Aldrich. Microsomal incubations were performed in triplicate as independent data sets in 3 mM MgCl2, 25 mM KH2PO4 buffer at pH 7.4. Assays were performed at 500 μL total volume with 30 μM peptide, 1 mM NADPH, and 1 mg/mL pooled liver microsomes. Kanamycin at 200 μM was used as an internal standard. Pooled rat liver microsome assay showing data collected by HPLC. […] Assays were conducted at 37 °C with gentle rocking. […] Data were fit utilizing eqs 3–6.

human Y1-R = biological target: T4, human Y1-R (Homo sapiens, UniProt P25929); test: cAMP FRET reporter (H188) assay at Y1-R: counteraction of adenosine-stimulated cAMP in HEK293 cells; format: cell-based; conditions: HEK cells with H188 biosensor, recombinant human Y1-R and endogenous A2b receptors; 2 μM adenosine; 95% CI in brackets, at least triplicate; read-out: Y1-R agonist action (IC50), decrease of adenosine-raised cAMP
T4 sequence (P25929 1-384): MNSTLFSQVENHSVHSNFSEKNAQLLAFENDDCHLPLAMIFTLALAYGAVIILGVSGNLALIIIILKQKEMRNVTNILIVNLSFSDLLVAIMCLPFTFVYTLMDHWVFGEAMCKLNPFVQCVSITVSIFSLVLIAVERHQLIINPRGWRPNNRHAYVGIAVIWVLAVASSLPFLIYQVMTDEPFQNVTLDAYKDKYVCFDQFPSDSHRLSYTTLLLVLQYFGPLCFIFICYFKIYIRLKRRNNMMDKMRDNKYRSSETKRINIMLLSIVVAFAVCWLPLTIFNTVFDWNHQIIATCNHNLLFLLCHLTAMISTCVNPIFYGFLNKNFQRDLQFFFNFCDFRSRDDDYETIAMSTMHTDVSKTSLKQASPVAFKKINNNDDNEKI

T1 sequence (P43220 24-463): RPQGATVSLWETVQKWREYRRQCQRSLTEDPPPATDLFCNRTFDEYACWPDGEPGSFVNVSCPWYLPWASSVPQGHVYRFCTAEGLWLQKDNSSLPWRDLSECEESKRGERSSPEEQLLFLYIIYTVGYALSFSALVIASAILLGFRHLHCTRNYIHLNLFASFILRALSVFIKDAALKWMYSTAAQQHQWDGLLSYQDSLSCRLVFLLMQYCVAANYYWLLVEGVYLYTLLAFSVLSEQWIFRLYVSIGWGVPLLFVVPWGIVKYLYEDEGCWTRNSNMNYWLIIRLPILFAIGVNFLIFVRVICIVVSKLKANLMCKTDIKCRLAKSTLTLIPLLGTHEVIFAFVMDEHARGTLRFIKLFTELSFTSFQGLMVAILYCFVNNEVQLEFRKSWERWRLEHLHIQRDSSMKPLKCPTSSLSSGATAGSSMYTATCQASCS
Chain of rat GlucR (P30082 27-485): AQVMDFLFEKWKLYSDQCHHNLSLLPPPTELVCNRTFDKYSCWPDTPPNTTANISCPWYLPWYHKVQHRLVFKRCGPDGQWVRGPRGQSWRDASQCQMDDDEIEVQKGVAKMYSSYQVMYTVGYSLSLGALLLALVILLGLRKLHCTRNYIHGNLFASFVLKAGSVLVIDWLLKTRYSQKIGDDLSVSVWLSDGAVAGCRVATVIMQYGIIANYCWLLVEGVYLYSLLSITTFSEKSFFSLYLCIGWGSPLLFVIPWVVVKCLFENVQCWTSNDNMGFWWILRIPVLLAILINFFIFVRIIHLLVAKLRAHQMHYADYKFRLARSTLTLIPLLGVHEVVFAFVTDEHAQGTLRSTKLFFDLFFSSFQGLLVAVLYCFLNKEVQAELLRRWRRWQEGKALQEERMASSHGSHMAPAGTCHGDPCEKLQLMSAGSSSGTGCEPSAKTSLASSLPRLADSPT

## H[dS]QGTFTSDLSKQMEEEAVRLFIEWLKNGGPSRHYLNLVTRQRY-NH2 [EP44]
Human GLP-1R [1]
  hill (competition binding at GLP-1R): –1.56
Rat GLP-1R
  Kd: 0.00012 µM
Human GLP-1R [2]; comparison of EC50 values
  increased GLP-1R potency over GEP44: ~30%

## CC[C@H](C)[C@H](NC(=O)[C@H](Cc1ccccc1)NC(=O)[C@H](CCC(=O)O)NC(=O)[C@H](CCCNC(=N)N)NC(=O)[C@@H](NC(=O)[C@H](C)NC(=O)[C@H](CCC(=O)O)NC(=O)[C@H](CCC(=O)O)NC(=O)[C@H](CCC(=O)O)NC(=O)[C@H](CC(C)C)NC(=O)[C@H](Cc1ccc(O)cc1)NC(=O)[C@H](CCCCN=[N+]=[N-])NC(=O)[C@H](CO)NC(=O)[C@H](CC(C)C)NC(=O)[C@H](CC(=O)O)NC(=O)[C@H](CO)NC(=O)[C@@H](NC(=O)[C@H](Cc1ccccc1)NC(=O)[C@@H](NC(=O)CNC(=O)[C@H](CCC(N)=O)NC(=O)[C@@H](CO)NC(=O)[C@@H](N)Cc1c[nH]cn1)[C@@H](C)O)[C@@H](C)O)C(C)C)C(=O)N[C@@H](C)C(=O)N[C@@H](Cc1c[nH]c2ccccc12)C(=O)N[C@@H](CC(C)C)C(=O)N[C@@H](CCCCN)C(=O)N[C@@H](CC(N)=O)C(=O)NCC(=O)NCC(=O)N1CCC[C@H]1C(=O)N[C@@H](CO)C(=O)N[C@@H](CCCNC(=N)N)C(=O)N[C@@H](Cc1c[nH]cn1)C(=O)N[C@@H](Cc1ccc(O)cc1)C(=O)N[C@@H](CC(C)C)C(=O)N[C@@H](CC(N)=O)C(=O)N[C@@H](CC(C)C)C(=O)N[C@H](C(=O)N[C@H](C(=O)N[C@@H](CCCNC(=N)N)C(=O)N[C@@H](CCC(N)=O)C(=O)N[C@@H](CCCNC(=N)N)C(=O)N[C@@H](Cc1ccc(O)cc1)C(N)=O)[C@@H](C)O)C(C)C [GEP44]
Human GLP-1R [1]; nine concentrations 1 pM to 1 μM, range in brackets, read-out: IC50, competition binding at GLP-1R using red fluorescent GLP-1
  IC50: 0.113 µM
Rat GlucR
  EC50: > 3 µM
Human Y2-R
  IC50: 0.01 µM
[3]
  CLlnt, intrinsic clearance in rat liver microsomes: 32.5 (1.18) μL/min/mg peptide
Human GLP-1R [2]; HEK cells expressing human GLP-1R and cAMP biosensor H188, FRET, SES buffer pH 7.4, nonlinear regression, 95% CI in brackets, at least triplicate independent data sets, read-out: GLP-1R agonist action (EC50), increase of cytosolic cAMP
  EC50: 0.00033 µM
Human Y1-R
  IC50: 0.027 µM

## CC[C@H](C)[C@H](NC(=O)[C@H](Cc1ccccc1)NC(=O)[C@H](CC(C)C)NC(=O)[C@H](CCCNC(=N)N)NC(=O)[C@@H](NC(=O)[C@H](C)NC(=O)[C@H](CCC(=O)O)NC(=O)[C@H](CCC(=O)O)NC(=O)[C@H](CCC(=O)O)NC(=O)[C@H](CCSC)NC(=O)[C@H](CCC(N)=O)NC(=O)[C@H](CCCCN=[N+]=[N-])NC(=O)[C@H](CO)NC(=O)[C@H](CC(C)C)NC(=O)[C@H](CC(=O)O)NC(=O)[C@H](CO)NC(=O)[C@@H](NC(=O)[C@H](Cc1ccccc1)NC(=O)[C@@H](NC(=O)CNC(=O)[C@H](CCC(N)=O)NC(=O)[C@@H](CO)NC(=O)[C@@H](N)Cc1c[nH]cn1)[C@@H](C)O)[C@@H](C)O)C(C)C)C(=O)N[C@@H](CCC(=O)O)C(=O)N[C@@H](Cc1c[nH]c2ccccc12)C(=O)N[C@@H](CC(C)C)C(=O)N[C@@H](CCCCN)C(=O)N[C@@H](CC(N)=O)C(=O)N[C@@H](CCCNC(=N)N)C(=O)N[C@@H](Cc1c[nH]cn1)C(=O)N[C@@H](Cc1ccc(O)cc1)C(=O)N[C@@H](CC(C)C)C(=O)N[C@@H](CC(N)=O)C(=O)N[C@@H](CC(C)C)C(=O)N[C@H](C(=O)N[C@H](C(=O)N[C@@H](CCCNC(=N)N)C(=O)N[C@@H](CCC(N)=O)C(=O)N[C@@H](CCCNC(=N)N)C(=O)N[C@@H](Cc1ccc(O)cc1)C(N)=O)[C@@H](C)O)C(C)C [EP40]
Human GLP-1R [1]
  hill (competition binding at GLP-1R): –0.96
